Assays:
[1] = system: purinergic receptor on PC-3M prostate carcinoma cells; assay: Purine-stimulated Ca2+ response (quin2 fluorescence) in PC-3M; assay type: cell-based, human; details: FIG. 8
Experimental: (§5) The human prostate carcinoma cell lines PC3, DU145 (American Type Culture Collection) and PC-3M (a gift of Dr. G. Weiss, Surgery Branch, NCI) were maintained in Ham's F12K (PC3), Eagle's Modified Essential Medium (DU145), or RPMI 1640 (PC3M), supplemented with 7% (PC3) or 10% (DU145 and PC3M) fetal bovine serum, 100 units/ml penicillin, 100 mg/ml streptomycin, and 300 mg/ml glutamine. The cells were grown in a mixture of 5% CO2, 95% air at 37° C., and propagated by typsinization and dilution into fresh medium. Cells were typically used for calcium determination two days after dilution into fresh medium.
(§6) [Ca^2+ ]i was determined by the quin2 technique of Tsien et al. (J. Cell Biol. 94:325-334, 1982) with some modifications. Briefly, cells from confluent cultures were harvested by treatment with trypsin-EDTA. Cells were washed with calcium medium (1 mM CaCl2, 1 mM KCl, 1 mM MgCl2, 140 mM NaCl, 20 mM HEPES, 5 mM dextrose, pH 7.4), and loaded with 20 mM quin2/AM (Molecular Probes, Eugene, Oreg.) in calcium medium at 37° C. for 30 minutes, then diluted 5-fold with the same medium and incubated at 37° C. for 60 minutes. After loading, cells were washed and resuspended in the calcium media at 1.5-2.0×10^6 cells/ml and kept on ice until use. Cell viability was determined by trypan blue exclusion and was usually >95%. For measurement of fluorescence, 2 ml of cell suspension was transferred to a cuvette maintained at 37° C. Fluorescence was measured in a Perkin-Elmer 650-10S fluorescence spectrophotometer, with an excitation wavelength of 336 nm, slit 5 nm, and an emission wavelength of 493 nm, slit 5 nm. [Ca^2+ ]i was estimated after calibration with Triton X-100 and EGTA, assuming a dissociation constant of the Ca^2+ -quin2 complex of 115 nM.

[2] = system: PC-3 prostate carcinoma purinergic receptor; assay: ATP/purine-stimulated Ca2+ response (quin2 fluorescence) in PC-3; assay type: cell-based, human; details: for relative agonist potency/activity in inducing a Ca2+ transient: PC-3, FIG. 7
Experimental: as §5, §6

[3] = system: DU145 prostate carcinoma purinergic receptor; assay: ATP/purine-stimulated Ca2+ response (quin2 fluorescence) in DU145; assay type: cell-based, human; details: for relative agonist potency/activity in inducing a Ca2+ transient: DU145, FIG. 6
Experimental: as §5, §6

[4] = system: DU145 cells; assay: Cell growth (hemacytometer viable cell counts) in DU145; assay type: cell-based, human; details: DU145, 5 days, 100 μM, versus untreated controls, FIG. 11
Experimental: (§1) The human prostate carcinoma cell lines PC3, DU145 (American Type Culture Collection) and PC-3M (a gift of Dr. G. Weiss, Surgery Branch, NCI) were maintained in Ham's F12K (PC3), Eagle's Modified Essential Medium (DU145), or RPMI 1640 (PC3M), supplemented with 7% (PC3) or 10% (DU145 and PC3M) fetal bovine serum, 100 units/ml penicillin, […], and […]. The cells were grown in a mixture of 5% CO2, 95% air at 37° C., and propagated by typsinization and dilution into fresh medium. Cells were typically used for calcium determination two days after dilution into fresh medium.
Cell growth was studied by hemacytometer counts of viable cells after incubation of cells with purinergic agonists in vitro. Viability was determined by trypan blue exclusion. In addition, growth studies were performed by ^3 H-thymidine incorporation. […]
(§2) Since purinergic receptor agonists induce massive mobilization of internal Ca^2+ stores and prolong this response through the opening of plasma membrane Ca^2+ channels, the effect of purinergic receptor stimulation on the growth of androgen-independent cells was examined. The cell lines DU145, PC-3, and PC-3M were incubated in the presence of ATP or the nonhydrolysable ATP analog adenylylimidodiphosphate (AMP-PNP), and cell growth was determined by hemacytometer counts of viable cells, with viability determined by trypan blue exclusion.

[5] = system: PC-3 prostate carcinoma cells; assay: Cell growth (hemacytometer viable cell counts) and 3H-thymidine incorporation in PC-3; assay type: cell-based, human; details: for inhibition of cell growth: PC-3, 5 days, versus untreated control cells, FIG. 12; for 3H-thymidine incorporation cpm / 3H-thymidine incorporation cpm/cell / cell # (× 10-4): PC-3, 7 days
Experimental: as §1
(§3) Cell growth was studied by hemacytometer counts of viable cells after incubation of cells with purinergic agonists in vitro. Viability was determined by trypan blue exclusion. In addition, growth studies were performed by ^3 H-thymidine incorporation. […] The induction of DNA strand breaks in the setting of cell growth inhibition is characteristic of programmed cell death or apoptosis.
as §2
(§4) To further document the purinergic agonist-induced growth inhibition, thymidine incorporation studies were performed in conjunction with hemacytometer cell counts, and the thymidine incorporation per cell of ATP and AMP-PNP treated PC-3 and PC-3M cells was determined. These studies, shown in Table 2, confirmed that purinergic agonists inhibit the growth of androgen-independent prostate carcinoma cells. […] It is of interest that normal prostate cells die in response to androgen withdrawal in a process called apoptosis, and this cell death resembles the cell death shown after treatment with purinergic agonists in two respects. Firstly, the death of normal prostate cells after androgen withdrawal is dependent on a rise in intracellular Ca^2+. Secondly, the death of normal prostate cells after androgen withdrawal is mediated by an increase in the number of DNA strand breaks. Thus, this technique should be therapeutically useful for circumventing the absence of androgen receptors on advanced prostate carcinoma cells. The results presented here represent the discovery of a surface receptor specifically expressed on advanced prostatic adenocarcinoma which, when activated, induces a mode of cell death that apparently utilizes that same intracellular pathway as the death that normal prostate cells undergo in response to the withdrawal of androgen.

[6] = system: PC-3 prostate carcinoma cells; assay: Nude mouse tumorigenesis of PC-3 cells pretreated in vitro; assay type: in vivo, athymic mice; details: cells pretreated in vitro 100 uM 3 times over 7 days, 1.5×10^6 cells/mouse s.c., FIG. 13
Experimental: PC-3 prostate carcinoma cells were treated in vitro with the purinergic agonists ATP or AMP-PNP, 100 uM 3 times over 7 days, and their growth in athymic mice was compared to that in untreated control cells. Cells were injected subcutaneously at an inoculum of 1.5×10^6 cells/mouse in 0.2 ml phosphate buffered saline, and the presence of palpable tumors was determined on day 22.
The cells were treated in vitro for 7 days, and then an equal number of untreated control cells, ATP treated, or AMP-PNP treated cells were inoculated subcutaneously into nude (athymic) mice.

[7] = system: PC-3M prostate carcinoma cells; assay: Cell growth (hemacytometer viable cell counts) and 3H-thymidine incorporation in PC-3M; assay type: cell-based, human; details: 5 days
Experimental: as §1, §3, §2, §4

[8] = system: phospholipase C; assay: ATP-stimulated inositol phosphate production (HPLC of 3H-inositol phosphates) in PC-3; assay type: cell-based, human
Experimental: Cells were incubated with ^3 H-inositol (6 μCi/ml) in inositol-free RPMI 1640 medium (NIH Media Unit) without serum for 2 to 3 days at 37° C. under an atmosphere of 5% CO2, 95% air. Cells were detached by trypsinization, washed twice in phosphate buffered saline pH 7.4, resuspended in PBS with 10 mM LiCl, and maintained for 15 minutes at 37° C. After that, cells were washed twice with PBS plus 10 mM LiCl and resuspended in calcium medium plus 10 mM LiCl. The cell suspension was aliquoted into Eppendorf tubes, pre-warmed at 37° C., and treated with reagents for different times as indicated. Reactions were terminated by adding 100% trichloroacetic acid (TCA) to a final concentration of 10%. After centrifugation, the supernatants were removed, extracted twice with water-saturated ether to remove TCA, and stored at 4° C. until quantitative analysis of inositol phosphates by high pressure liquid chromatography.
Samples prepared as described above were applied to a Whatman Partisil 5 SAX column. Inositol phosphates were separated using an ammonium phosphate gradient (0.01M to 1.4M. pH 3.8, 1 ml/min flow rate) as described previously (Biochem. J. 255: 403-410, 1988). Radioactivity was measured by use of a Raytest radiodetector with a 2 ml flow cell and a ratio of 4:1 (v:v) of Monoflow 4 high salt scintillant (National Diagnostics); eluate at an efficiency of 17%. Values (counts/min) for each inositol phosphate were expressed as a percentage of ^3 H-phosphoinositides in the sample, permitting comparison among experiments.

[9] = system: plasma membrane Ca^2+ channels; assay: Effect of organic Ca2+ channel blockers on the ATP-stimulated Ca2+ transient in PC-3; assay type: cell-based, human; details: PC-3, FIG. 9

## Nc1ncnc2c1ncn2[C@@H]1O[C@H](COP(=O)(O)OP(=O)(O)O)[C@@H](O)[C@H]1O [ADP, adenosine diphosphate]
[1]
  relative agonist potency/activity in inducing a Ca2+ transient: ATP>ADP>AMP>adenosine
[2]
  relative agonist potency/activity in inducing a Ca2+ transient: ATP>ADP>AMP>adenosine
[3]
  relative agonist potency/activity in inducing a Ca2+ transient: ATP>ADP>AMP>adenosine

## Nc1ncnc2c1ncn2[C@@H]1O[C@H](COP(=O)(O)O)[C@@H](O)[C@H]1O [AMP, adenosine monophosphate]
[1]
  relative agonist potency/activity in inducing a Ca2+ transient: ATP>ADP>AMP>adenosine
[2]
  relative agonist potency/activity in inducing a Ca2+ transient: ATP>ADP>AMP>adenosine
[3]
  relative agonist potency/activity in inducing a Ca2+ transient: ATP>ADP>AMP>adenosine

## Nc1ncnc2c1ncn2[C@@H]1O[C@H](COP(=O)(O)OP(=O)(O)NP(=O)(O)O)[C@@H](O)[C@H]1O [AMP-PNP, 5'adenylylimidodiphosphate]
[4]
  inhibition of cell growth: inhibition of growth
[5]; 100 μM
  inhibition of cell growth: inhibition of growth
  3H-thymidine incorporation cpm: 307 cpm
  3H-thymidine incorporation cpm/cell: 0.06 cpm/cell
  cell # (× 10-4): 0.5 × 10-4
[6]
  inhibition of tumorigenesis (palpable tumor): inhibition of PC-3 prostate carcinoma tumorigenesis
[7]; 100 μM
  3H-thymidine incorporation cpm: 2790 cpm
  3H-thymidine incorporation cpm/cell: 0.14 cpm/cell
  cell # (× 10-4): 2.0 × 10-4

## Nc1ncnc2c1ncn2[C@@H]1O[C@H](COP(=O)(O)OP(=O)(O)OP(=O)(O)O)[C@@H](O)[C@H]1O [ATP, adenosine triphosphate]
[1]
  relative agonist potency/activity in inducing a Ca2+ transient: ATP>ADP>AMP>adenosine
[4]
  inhibition of cell growth: inhibition of growth
[8]; PC-3, 8 sec
  I(1,4,5)P3 % of total IP: 0.64 % of total IP
  I(1,4,5)P3 cpm: 1103 cpm
[8]; PC-3, 15 sec
  I(1,4,5)P3 % of total IP: 0.57 % of total IP
  I(1,4,5)P3 cpm: 971 cpm
[8]; PC-3, 30 sec
  I(1,4,5)P3 % of total IP: 0.78 % of total IP
  I(1,4,5)P3 cpm: 1361 cpm
[5]; 100 μM
  inhibition of cell growth: inhibition of growth
  3H-thymidine incorporation cpm: 2729 cpm
  3H-thymidine incorporation cpm/cell: 0.04 cpm/cell
  cell # (× 10-4): 7.5 × 10-4
[6]
  inhibition of tumorigenesis (palpable tumor): inhibition of PC-3 prostate carcinoma tumorigenesis
[2]; PC-3, 100 μM ATP, 16 experiments
  mean percent stimulation of Ca2+ response: 443.3%
[2]; PC-3, FIG. 1
  Ca2+ mobilizing activity compared with other peptides and neurotransmitters: largest Ca^2+ response of the agonists tested
[2]
  relative agonist potency/activity in inducing a Ca2+ transient: ATP>ADP>AMP>adenosine
[3]; DU145, 100 μM ATP, 13 experiments
  mean percent stimulation of Ca2+ response: 510.7%
[3]
  relative agonist potency/activity in inducing a Ca2+ transient: ATP>ADP>AMP>adenosine
[7]; 100 μM
  3H-thymidine incorporation cpm: 3307 cpm
  3H-thymidine incorporation cpm/cell: 0.11 cpm/cell
  cell # (× 10-4): 3.0 × 10-4

## CCCC(=O)Nc1ncnc2c1ncn2[C@@H]1O[C@@H]2COP(=O)(O)O[C@H]2[C@H]1OC(=O)CCC [DbcAMP, reference compound]
[5]; DbcAMP concentration not given
  3H-thymidine incorporation cpm: 182 cpm
  3H-thymidine incorporation cpm/cell: 0.01 cpm/cell
  cell # (× 10-4): 1.5 × 10-4

## C[C@H](CCC(=O)O)C[C@H](C)C[C@H](C)C(=O)/C=C(\O)[C@H](C)C[C@H](C)C/C=C/[C@@H](C)[C@@H](O)[C@@H](C)[C@@H](O)C[C@@H]1CC[C@@](C)([C@H]2CC[C@@](C)([C@@H](C)O)O2)O1 [Ionomycin, ionomycin, reference compound]
[7]; 1 μM
  3H-thymidine incorporation cpm: 3920 cpm
  3H-thymidine incorporation cpm/cell: 0.39 cpm/cell
  cell # (× 10-4): 1.0 × 10-4

## Nc1ncnc2c1ncn2[C@@H]1O[C@H](CO)[C@@H](O)[C@H]1O [adenosine]
[1]
  relative agonist potency/activity in inducing a Ca2+ transient: ATP>ADP>AMP>adenosine
[2]
  relative agonist potency/activity in inducing a Ca2+ transient: ATP>ADP>AMP>adenosine
[3]
  relative agonist potency/activity in inducing a Ca2+ transient: ATP>ADP>AMP>adenosine

## COc1ccc([C@@H]2Sc3ccccc3N(CCN(C)C)C(=O)[C@@H]2OC(C)=O)cc1 [diltiazem]
[9]
  inhibition of influx of extracellular Ca2+ caused by ATP stimulation: inhibitable

## COC(=O)C1=C(C)NC(C)=C(C(=O)OCCN(C)Cc2ccccc2)C1c1cccc([N+](=O)[O-])c1 (stereo not shown) [nicardipine]
[9]
  inhibition of influx of extracellular Ca2+ caused by ATP stimulation: inhibitable

## COC(=O)C1=C(C)NC(C)=C(C(=O)OC)C1c1ccccc1[N+](=O)[O-] [nifedipine]
[9]
  inhibition of influx of extracellular Ca2+ caused by ATP stimulation: inhibitable

## COc1ccc(CCN(C)CCCC(C#N)(c2ccc(OC)c(OC)c2)C(C)C)cc1OC (stereo not shown) [verapamil]
[9]
  inhibition of influx of extracellular Ca2+ caused by ATP stimulation: inhibitable
